Test results as given in patent publication US7150880B2, “Compositions containing creatine and creatinine and a methyl xanthine” (The Original Creatine Patent Co. Ltd., priority 1996, dated 2006).
Like-named read-outs stand apart in the source and are kept apart here.

Columns and labels:
[1] = human body; cited from earlier work
[2] = Vandeberg et al 1996 J. Appl. Physiology 80; cited from earlier work
[3] = ingestion of 20 to 30 g per day for several days; cited from earlier work
[4] = Mole:mole creatinine to creatine ratios required for stability at 2, 22 and 39° C. over pH 3.8 to 8.25 (Example 5); details: for time to reach stability: starting ratios close to equilibrium
Description: Using solutions from 1. above the following solutions were prepared at room temperature:
Triplicate samples were prepared.
The samples were capped and heat sterilized for 30 minutes at 90° C.
One set of samples was stored at 2° C., another set at 22° C. and the final set stored at 39°.

[5] = Flavored drink of creatine plus creatinine formed by heating: stability at 22° C. and solubility at 3° C. (Example 4); type: physicochemical; details: Example 4 drink at 3° C.
Description: The solution was cooled to room temperature.
In addition, the solution contained 15 percent Aloe Vera juice, flavoring and dextrose to sweeten.
Solutions from steps 1 and 2 were then mixed together and heated at 90° C. for 30 minutes to sterilize the mixture and then placed in a glass or plastic bottle and stored at 22° C.

[6] = not given; remark: listed apart in the source

## Cn1c(=O)c2c(ncn2C)n(C)c1=O [caffeine]
[1]
  half life of ingested caffeine: 5 to 6 h
[2]
  effect on ergogenic action of muscle creatine loading: counteracted the ergogenic action of muscle creatine loading

## CN(CC(=O)O)C(=N)N.O [creatine monohydrate]
[3]
  increase in human skeletal muscle total creatine content: greater than 20%
[4]; 39° C.
  increase between weeks 5 and 6 as creatine monohydrate: 0.113 g per litre

## CN(CC(=O)O)C(=N)N [creatine]
[5]
  precipitation in refrigerator: did not precipitate out
Solution of low pH, composed initially of just creatine, 22° C. (FIG. 2)
  time to reach equilibrium: up to 8 weeks
Starting with creatine and no creatinine, 22° C.
  time to reach stability: ≥ 4 weeks
[4]; 39° C., mean (SD)
  mean change in creatine concentration between weeks 5 and 6: +0.76 (SD 1.3) mmol/l
  percentage change from weeks 5 and 6: 3.1 (3.8) %
[4]; incubated at 39° C.
  time to reach stability: < 5 weeks
[4]; incubated between 2 and 39° C.
  time to reach stability: ≤ 6 weeks
[6]; pH's 3 and 4, after 30 minutes at 90° C., 22° C.
  period remaining creatine stable after heating: at least 95 days
[6]; pH's 5, 6 and 7, creatinine:creatine monohydrate 1:1, heated 30 minutes at 90° C.
  stability of creatine with sufficient creatinine: exceptionally stable
[6]; pH's 6 and 7, 90° C. 30 minutes, creatinine 1:1 w/w
  loss of creatine during the heating period: no loss of creatine
